This note sets out measurements from PMC12281424, “A Rac-specific competitive inhibitor of guanine nucleotide binding reduces metastasis in triple-negative breast cancer” (Cell Reports Medicine, 2025).

One test deals with MRCKα(h) (Homo sapiens, UniProt Q5VT25). As to the kind of experiment: Kinase Profiler. Type of test: biochemical.
The next test deals with T1, RAC1 (Mus musculus, UniProt P63001).
T1 construct: endogenous in cells; host or cells: NIH/3T3 fibroblasts (ATCC CRL-1658), EGF-stimulated
Description: RAC-GTP pull-down assay, EGF-stimulated NIH/3T3 fibroblasts. Type of test: cell-based. As to conditions: 10^-5 M, 1 h, EGF 10 ng/mL 5 min. As to the method:
Figure 2 Identification of a new RAC1 inhibitor (A) Effect of A41 and NSC23766 on ruffle formation (white arrows) induced by EGF (10 ng/mL) in NIH 3T3 cells in serum-free culture medium (CTL). Inhibitors were added at indicated concentration 1 h prior to EGF stimulation. To assess cytoskeleton organization, cells were incubated with Alexa Fluor 488 phalloidin to visualize F-actin. Results shown are representative of 3 independent experiments. Corresponding concentration-response curves have been established by counting the percentages of cells with ruffles (scale bars: 10 μm). (B) Immunoblot analysis and associated quantification of RAC-GTP level and total RAC expression in NIH 3T3 cells stimulated by EGF (10 ng/mL, 5 min) and pre-incubated or not (−) with NSC23766, A41, or A415 at 10^−5 M for 1 h (∗∗∗p < 0.001 vs. controls without EGF stimulation, ^###p < 0.001 vs. controls with EGF stimulation) (N > 3). (C) Representative surface plasmon resonance (SPR) sensograms of binding of immobilized RAC1 with increasing concentrations of A41 with or without EDTA (20 mM) (N > 3). (D) Representative in vitro nucleotide exchange catalyzed by the DH-PH of TIAM (10 nM) measured by the binding of fluorescent mant-GTP (1 μM) to RAC1 (0.5 μM, preloaded with GDP) in the presence of indicated concentrations of A41 (out of N = 6). Dotted lines correspond to the experimental curves, and continuous lines represent the fit of experimental points. (E) Kobs and Kmax were determined in each condition (N = 6). (F) Predicted binding modes of A4 to the NSC23766-binding site (left) or the GDP-binding pocket of RAC1 (right). In the NSC23766-binding site of RAC1, the compound A4 (carbon atoms in blue) makes 2 hydrogen bonds (green dotted line) with Ser71 (S71) and 10 hydrophobic interactions (pink dotted line) with Ala3 (A3), Lys5 (K5), Val36 (V36), Trp56 (W56), Tyr64 (Y64), and Leu67 (L67) leading to a docking score of −6.03 kcal/mol. The GDP molecule is shown with fine line. The P loop is shown in yellow, the switch 1 in orange, and the switch 2 in green. […]
Pull-down assay using GST-PBD fusion proteins were performed on NIH-3T3 lysates to assess RAC1 activity as previously described.[63] The precipitated active RAC was subjected to SDS-PAGE and detected by immunoblot with anti-RAC1 antibody (BD biosciences) (dilution 1/1000). […]
screening molecules (10^-5 M) on NIH/3T3 cell adhesion (xCELLingence Real-time cellanalysis, Agilent), migration (CYTOO Mobility plates) and proliferation (xCELLingence Real-time cell analysis, Agilent) .The level of RAC activation is determinedby the detection of RAC-GTP (pull-down assay) in NIH/3T3 cell treated with EGF (10 ng/mL) and the differentmolecules and normalize to the level of RAC activity measuredin the presenceof the reference RAC inhibitor EHT1864.

Chain of MRCKα(h) (Q5VT25 whole entry): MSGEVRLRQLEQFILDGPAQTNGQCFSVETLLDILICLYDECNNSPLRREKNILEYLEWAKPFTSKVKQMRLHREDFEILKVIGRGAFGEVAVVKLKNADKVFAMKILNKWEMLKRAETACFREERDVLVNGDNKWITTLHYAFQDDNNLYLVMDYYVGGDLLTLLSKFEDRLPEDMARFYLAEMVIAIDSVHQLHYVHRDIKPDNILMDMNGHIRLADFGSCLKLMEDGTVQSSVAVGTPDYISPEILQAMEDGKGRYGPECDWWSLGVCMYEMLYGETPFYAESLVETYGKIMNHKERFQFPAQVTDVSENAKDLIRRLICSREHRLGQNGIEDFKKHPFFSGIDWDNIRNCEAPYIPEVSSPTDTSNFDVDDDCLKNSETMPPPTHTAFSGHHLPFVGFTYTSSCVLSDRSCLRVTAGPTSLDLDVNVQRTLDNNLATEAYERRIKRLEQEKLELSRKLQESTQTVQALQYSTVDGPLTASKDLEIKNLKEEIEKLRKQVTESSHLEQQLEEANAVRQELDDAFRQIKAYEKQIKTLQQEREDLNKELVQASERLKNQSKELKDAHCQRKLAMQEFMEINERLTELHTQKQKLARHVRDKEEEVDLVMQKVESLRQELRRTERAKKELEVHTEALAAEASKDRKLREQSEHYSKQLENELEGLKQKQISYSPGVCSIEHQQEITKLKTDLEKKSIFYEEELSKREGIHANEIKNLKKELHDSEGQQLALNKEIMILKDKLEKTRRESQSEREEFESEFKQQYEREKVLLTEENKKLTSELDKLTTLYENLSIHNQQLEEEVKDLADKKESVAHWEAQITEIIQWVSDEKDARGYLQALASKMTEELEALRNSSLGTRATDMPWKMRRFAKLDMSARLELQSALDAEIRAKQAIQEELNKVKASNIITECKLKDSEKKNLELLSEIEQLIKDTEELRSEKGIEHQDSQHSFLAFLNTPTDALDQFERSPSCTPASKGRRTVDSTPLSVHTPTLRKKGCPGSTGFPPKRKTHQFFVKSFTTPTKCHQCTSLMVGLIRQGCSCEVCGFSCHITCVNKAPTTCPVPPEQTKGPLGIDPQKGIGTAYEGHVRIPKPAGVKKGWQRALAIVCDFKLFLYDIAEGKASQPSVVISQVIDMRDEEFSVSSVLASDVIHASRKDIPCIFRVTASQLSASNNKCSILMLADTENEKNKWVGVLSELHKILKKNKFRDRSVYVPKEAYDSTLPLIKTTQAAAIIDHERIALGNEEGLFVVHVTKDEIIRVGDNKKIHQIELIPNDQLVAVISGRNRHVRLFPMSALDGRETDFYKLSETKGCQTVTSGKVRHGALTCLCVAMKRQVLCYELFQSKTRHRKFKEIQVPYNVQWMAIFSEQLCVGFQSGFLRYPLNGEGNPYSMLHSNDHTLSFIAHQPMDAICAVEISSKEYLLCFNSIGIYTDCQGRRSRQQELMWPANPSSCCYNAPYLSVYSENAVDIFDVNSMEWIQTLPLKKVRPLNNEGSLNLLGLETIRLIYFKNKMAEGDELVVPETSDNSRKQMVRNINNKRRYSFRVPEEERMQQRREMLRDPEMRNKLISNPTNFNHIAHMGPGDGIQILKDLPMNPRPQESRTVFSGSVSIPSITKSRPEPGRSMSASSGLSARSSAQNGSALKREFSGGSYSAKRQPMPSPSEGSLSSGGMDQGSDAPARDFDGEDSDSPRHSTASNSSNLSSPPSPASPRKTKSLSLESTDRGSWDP
Description for MRCKα(h): The kinase profiler was performed by the company Eurofins (Discovery, Panlab and Cerep).

As to `COc1ccc(OC)c(NS(=O)(=O)c2ccc(NC(=O)CCSc3ccc(C)cc3)cc2)c1` [Compound A41], the “Activity(%)” value on MRCKα(h) worked out at 109%. On RAC1, the “RAC1 activation (active GTP-bound RAC1)” value was “blocked RAC1 activation”.
